Measured values published in patent US8530388B2, “Cyclopentadione derived herbicides” (Syngenta Limited, priority 2009, dated 2013).

Experiments:
Type in all cases: in vivo
[1] = test system: Alopecurus myosuroides (ALOMY); test: Pre-emergence herbicidal activity, glasshouse pot test; conditions: 312 h, Rate 250 g/ha, sprayed one day after sowing, evaluated after 13 days, 100=total damage to plant, 0=no damage to plant
Description: (§1) Seeds of a variety of test species were sown in standard soil in pots. After cultivation for one day (pre-emergence) or after 8 days cultivation (post-emergence) under controlled conditions in a glasshouse (at 24/16° C., day/night; 14 hours light; 65% humidity), the plants were sprayed with an aqueous spray solution derived from the formulation of the technical active ingredient in acetone/water (50:50) solution containing 0.5% Tween 20 (polyoxyethelyene sorbitan monolaurate, CAS RN 9005-64-5). The test plants were then grown in a glasshouse under controlled conditions in a glasshouse (at 24/16° C., day/night; 14 hours light; 65% humidity) and watered twice daily. After 13 days for pre and post-emergence, the test was evaluated (100=total damage to plant; 0=no damage to plant). Test plants: Setaria faberi (SETFA), Lolium perenne (LOLPE), Alopecurus myosuroides (ALOMY), Echinochloa crus-galli (ECHCG), and Avena fatua (AVEFA) Pre-Emergence Activity

Avena fatua (AVEFA) [2] = test: as above; conditions: 312 h, Rate 250 g/ha, sprayed one day after sowing, evaluated after 13 days, 100=total damage to plant, 0=no damage to plant
Description: as §1

[3] = test system: Echinochloa crus-galli (ECHCG); test: as above; conditions: 312 h, Rate 250 g/ha, sprayed one day after sowing, evaluated after 13 days, 100=total damage to plant, 0=no damage to plant
Description: as §1

Lolium perenne (LOLPE) [4] = test: as above; conditions: 312 h, Rate 250 g/ha, sprayed one day after sowing, evaluated after 13 days, 100=total damage to plant, 0=no damage to plant
Description: as §1

[5] = test system: Alopecurus myosuroides (ALOMY); test: Post-emergence herbicidal activity, glasshouse pot test; conditions: 312 h, rate 250 g/ha, evaluated after 13 days, read-out: Post-emergence activity, ALOMY (100=total damage to plant; 0=no damage to plant)
Description: as §1, with “plant).” for “plant). Test plants: Setaria faberi (SETFA), Lolium perenne (LOLPE), Alopecurus myosuroides (ALOMY), Echinochloa crus-galli (ECHCG), and Avena fatua (AVEFA) Pre-Emergence Activity”
(§2) Test plants: Setaria faberi (SETFA), Lolium perenne (LOLPE), Alopecurus myosuroides (ALOMY), Echinochloa crus-galli (ECHCG), and Avena fatua (AVEFA)

Avena fatua (AVEFA) [6] = test: as above; conditions: 312 h, rate 250 g/ha, evaluated after 13 days, read-out: Post-emergence activity, AVEFA (100=total damage to plant; 0=no damage to plant)
Description: as §1, with “plant).” for “plant). Test plants: Setaria faberi (SETFA), Lolium perenne (LOLPE), Alopecurus myosuroides (ALOMY), Echinochloa crus-galli (ECHCG), and Avena fatua (AVEFA) Pre-Emergence Activity”
as §2

[7] = test system: Echinochloa crus-galli (ECHCG); test: as above; conditions: 312 h, rate 250 g/ha, evaluated after 13 days, read-out: Post-emergence activity, ECHCG (100=total damage to plant; 0=no damage to plant)
Description: as §1, with “plant).” for “plant). Test plants: Setaria faberi (SETFA), Lolium perenne (LOLPE), Alopecurus myosuroides (ALOMY), Echinochloa crus-galli (ECHCG), and Avena fatua (AVEFA) Pre-Emergence Activity”
as §2

Lolium perenne (LOLPE) [8] = test: as above; conditions: 312 h, rate 250 g/ha, evaluated after 13 days, read-out: Post-emergence activity, LOLPE (100=total damage to plant; 0=no damage to plant)
Description: as §1, with “plant).” for “plant). Test plants: Setaria faberi (SETFA), Lolium perenne (LOLPE), Alopecurus myosuroides (ALOMY), Echinochloa crus-galli (ECHCG), and Avena fatua (AVEFA) Pre-Emergence Activity”
as §2

CCc1ccc(-c2cc(Cl)c(F)cc2F)cc1C1=C(O)CCC1=O [Compound T-22]
pest or weed control at 250 g/ha [1]: 0%
pest or weed control at 250 g/ha (Avena fatua (AVEFA) [2]): 0%
pest or weed control at 250 g/ha [3]: 30%
pest or weed control at 250 g/ha (Lolium perenne (LOLPE) [4]): 10%
pest or weed control at 250 g/ha [5]: 30%
pest or weed control at 250 g/ha (Avena fatua (AVEFA) [6]): 10%
pest or weed control at 250 g/ha [7]: 60%
pest or weed control at 250 g/ha (Lolium perenne (LOLPE) [8]): 10%

CCc1ccc(-c2ccc(Cl)c(Cl)c2)cc1C1=C(O)CCC1=O [Compound T-5]
pest or weed control at 250 g/ha [1]: 20%
pest or weed control at 250 g/ha (Avena fatua (AVEFA) [2]): 0%
pest or weed control at 250 g/ha [3]: 20%
pest or weed control at 250 g/ha (Lolium perenne (LOLPE) [4]): 20%
pest or weed control at 250 g/ha [5]: 30%
pest or weed control at 250 g/ha (Avena fatua (AVEFA) [6]): 20%
pest or weed control at 250 g/ha [7]: 70%
pest or weed control at 250 g/ha (Lolium perenne (LOLPE) [8]): 50%

CCc1ccc(-c2ccc(Cl)cc2C)cc1C1=C(O)CCC1=O [Compound T-4]
pest or weed control at 250 g/ha [1]: 50%
pest or weed control at 250 g/ha (Avena fatua (AVEFA) [2]): 10%
pest or weed control at 250 g/ha [3]: 50%
pest or weed control at 250 g/ha (Lolium perenne (LOLPE) [4]): 60%
pest or weed control at 250 g/ha [5]: 50%
pest or weed control at 250 g/ha (Avena fatua (AVEFA) [6]): 0%
pest or weed control at 250 g/ha [7]: 70%
pest or weed control at 250 g/ha (Lolium perenne (LOLPE) [8]): 30%
